Patent publication US10058598B2, “Peptides and combination of peptides for use in immunotherapy against various cancers” (immatics biotechnologies GmbH, priority 2015, dated 2018)

How the values were obtained:
[1] = tested on: CD8+ T cells of healthy HLA-A*02+ donors; assay: In vitro immunogenicity: T-cell priming with aAPCs loaded with HLA-A*02/peptide complexes and anti-CD28, pMHC multimer readout; format: cell-based, human; conditions: for Wells positive [%]: in vitro immunogenicity, HLA-A*02 peptides (SEQ ID No 1-251), pMHC multimer readout
Excerpt: FIGS. 4A to 4D show exemplary results of peptide-specific in vitro CD8+ T cell responses of a healthy HLA-A*02+ donor. CD8+ T cells were primed using artificial APCs coated with anti-CD28 mAb and HLA-A*02 in complex with SeqID No 27 peptide (FIG. 4A, left panel), SeqID No 229 peptide (FIG. 4B, left panel), SeqID No 230 peptide (FIG. 4C, left panel) and SeqID No 235 peptide (FIG. 4D, left panel), respectively. After three cycles of stimulation, the detection of peptide-reactive cells was performed by 2D multimer staining with A*02/SeqID No 27 (FIG. 4A), A*02/SeqID No 229 (FIG. 4B), A*02/SeqID No 230 (FIG. 4C) or A*02/SeqID No 235 (FIG. 4D). Right panels (FIGS. 4A, 4B, 4C and 4D) show control staining of cells stimulated with irrelevant A*02/peptide complexes. Viable singlet cells were gated for CD8+ lymphocytes. Boolean gates helped excluding false-positive events detected with multimers specific for different peptides. Frequencies of specific multimer+ cells among CD8+ lymphocytes are indicated.
In order to obtain information regarding the immunogenicity of the TUMAPs of the present invention, the inventors performed investigations using an in vitro T-cell priming assay based on repeated stimulations of CD8+ T cells with artificial antigen presenting cells (aAPCs) loaded with peptide/MHC complexes and anti-CD28 antibody.
In order to perform in vitro stimulations by artificial antigen presenting cells loaded with peptide-MHC complex (pMHC) and anti-CD28 antibody, the inventors first isolated CD8+ T cells from fresh HLA-A*02 leukapheresis products via positive selection using CD8 microbeads (Miltenyi Biotec, Bergisch-Gladbach, Germany) of healthy donors obtained from the University clinics Mannheim, Germany, after informed consent.
PBMCs and isolated CD8+ lymphocytes were incubated in T-cell medium (TCM) until use consisting of RPMI-Glutamax (Invitrogen, Karlsruhe, Germany) supplemented with 10% heat inactivated human AB serum (PAN-Biotech, Aidenbach, Germany), 100 U/ml Penicillin/100 μg/ml Streptomycin (Cambrex, Cologne, Germany), 1 mM sodium pyruvate (CC Pro, Oberdorla, Germany), 20 μg/ml Gentamycin (Cambrex). 2.5 ng/ml IL-7 (PromoCell, Heidelberg, Germany) and 10 U/ml IL-2 (Novartis Pharma, Nurnberg, Germany) were also added to the TCM at this step.
Generation of pMHC/anti-CD28 coated beads, T-cell stimulations and readout was performed in a highly defined in vitro system using four different pMHC molecules per stimulation condition and 8 different pMHC molecules per readout condition.
The purified co-stimulatory mouse IgG2a anti human CD28 Ab 9.3 (Jung et al., 1987) was chemically biotinylated using Sulfo-N-hydroxysuccinimidobiotin as recommended by the manufacturer (Perbio, Bonn, Germany). Beads used were 5.6 μm diameter streptavidin coated polystyrene particles (Bangs Laboratories, IIIinois, USA).
pMHC used for positive and negative control stimulations were A*0201/MLA-001 (peptide […] (SEQ ID NO. 303) from modified Melan-A/MART-1) and A*0201/DDX5-001 ([…] from DDX5, SEQ ID NO. 304), respectively.
800.000 beads/200 μl were coated in 96-well plates in the presence of 4×12.5 ng different biotin-pMHC, washed and 600 ng biotin anti-CD28 were added subsequently in a volume of 200 μl. Stimulations were initiated in 96-well plates by co-incubating […] CD8+ T cells with 2×10^5 washed coated beads in 200 μl TCM supplemented with 5 ng/ml IL-12 (PromoCell) for 3 days at 37° C. Half of the medium was then exchanged by fresh TCM supplemented with 80 U/ml IL-2 and incubating was continued for 4 days at 37° C. This stimulation cycle was performed for a total of three times. For the pMHC multimer readout using 8 different pMHC molecules per condition, a two-dimensional combinatorial coding approach was used as previously described (Andersen et al., 2012) with minor modifications encompassing coupling to 5 different fluorochromes. […]

HLA-A*02 = assay: MHC binding assay: UV-ligand exchange and beta2m ELISA, peptide exchange yield; parameters: species or system human; conditions: binding to HLA-A*02, UV-ligand exchange, β2m ELISA
Excerpt: Candidate peptides for T cell based therapies according to the present invention were further tested for their MHC binding capacity (affinity). The individual peptide-MHC complexes were produced by UV-ligand exchange, where a UV-sensitive peptide is cleaved upon UV-irradiation, and exchanged with the peptide of interest as analyzed. Only peptide candidates that can effectively bind and stabilize the peptide-receptive MHC molecules prevent dissociation of the MHC complexes. To determine the yield of the exchange reaction, an ELISA was performed based on the detection of the light chain (β2m) of stabilized MHC complexes. The assay was performed as generally described in Rodenko et al. (Rodenko et al., 2006).
96 well MAXISorp plates (NUNC) were coated over night with 2 ug/ml streptavidin in PBS at room temperature, washed 4× and blocked forl h at 37° C. in 2% BSA containing blocking buffer. Refolded HLA-A*02:01/MLA-001 monomers served as standards, covering the range of 15-500 ng/ml. Peptide-MHC monomers of the UV-exchange reaction were diluted 100 fold in blocking buffer. Samples were incubated for 1 h at 37° C., washed four times, incubated with 2 ug/ml HRP conjugated anti-β2m for 1 h at 37° C., washed again and detected with TMB solution that is stopped with […]. Absorption was measured at 450 nm. Candidate peptides that show a high exchange yield (preferably higher than 50%, most preferred higher than 75%) are generally preferred for a generation and production of antibodies or fragments thereof, and/or T cell receptors or fragments thereof, as they show sufficient avidity to the MHC molecules and prevent dissociation of the MHC complexes.

Row | Peptide exchange (HLA-A*02) | Substance | Wells positive [%] [1] | in vitro immunogenicity, Wells ([1]; HLA-A*02 peptides, share of positive wells)
1 | ++++ (> = 75% = ++++) | 4 (KLMPGTYTL; listed as Homo sapiens) [compound 4] | + (<20% = +) | –
2 | ++++ (> = 75% = ++++) | 12 (GLLPLLHRA; listed as Homo sapiens) [compound 12] | ++++ (> = 70% = ++++) | –
3 | ++++ (> = 75% = ++++) | 249 (GLCERLVSL; listed as Homo sapiens) [compound 249] | + (<20% = +) | –
4 | – | 293 (FLVDGSWSI; listed as Homo sapiens) [compound 293] | – | + (<20% = +)
